Results reported in PubChem BioAssay AID330 (DTP/NCI, 2004).
“And” between values parts separate entries of the source, which are not always exact repeats. Equal entries are not always repeated. Inconclusive results and toxic doses are left out. How the source made its calls: active means survival T/C of 150% or more; inactive means T/C below 125% in these data.

Test system: P388 leukemia ip, CD2F1 mice, survival T/C
Assay: NCI In Vivo Anticancer Drug Screen. Data for tumor model P388 Leukemia (intraperitoneal) in CD2F1 (CDF1) mice
Conditions: endpoint: median survival time, higher = longer survival
In short: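 Mice carrying the transplanted tumor received test compound or vehicle. Survival was recorded in each group, and the value is the treated-group measurement divided by that of the vehicle-treated control group.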

[1] = dose: 50.0 mg/kg/injection, schedule: Q01DX009 (ip), vehicle: saline
[2] = dose: 100.0 mg/kg/injection, schedule: Q01DX009 (ip), vehicle: saline
[3] = dose: 200.0 mg/kg/injection, schedule: Q01DX009 (ip), vehicle: saline
[4] = dose: 60.0 mg/kg/injection, schedule: Q01DX005 (ip), vehicle: Klucel (hydroxypropylcellulose) (HPC)
[5] = dose: 120.0 mg/kg/injection, schedule: Q01DX005 (ip), vehicle: Klucel (hydroxypropylcellulose) (HPC)
[6] = dose: 240.0 mg/kg/injection, schedule: Q01DX005 (ip), vehicle: Klucel (hydroxypropylcellulose) (HPC)
[7] = dose: 50.0 mg/kg/injection, schedule: Q01DX009 (ip), vehicle: saline with Tween-80
[8] = dose: 100.0 mg/kg/injection, schedule: Q01DX009 (ip), vehicle: saline with Tween-80
[9] = dose: 200.0 mg/kg/injection, schedule: Q01DX009 (ip), vehicle: saline with Tween-80

Measured: T/C

COc1ccc(C(O)C/[N+]([O-])=C/c2ncc([N+](=O)[O-])n2C)cc1 (stereo unspecified)
inactive: [1] 97 % of control | [2] 100 % of control | [3] 106 % of control

CC(=O)NN1C(=O)Cc2ccccc2C1C(N)=O (stereo unspecified)
inactive: dose: 50.0 mg/kg/injection, schedule: Q01DX009 (ip), vehicle: Klucel (hydroxypropylcellulose) (HPC) 103 % of control | dose: 100.0 mg/kg/injection, schedule: Q01DX009 (ip), vehicle: Klucel (hydroxypropylcellulose) (HPC) 111 % of control | dose: 200.0 mg/kg/injection, schedule: Q01DX009 (ip), vehicle: Klucel (hydroxypropylcellulose) (HPC) 103 % of control

O=C1C(Cl)=C(Sc2nc3ccccc3s2)C(=O)c2ccccc21
inactive: dose: 12.5 mg/kg/injection, schedule: Q01DX005 (ip), vehicle: saline with Tween-80 100 % of control | dose: 25.0 mg/kg/injection, schedule: Q01DX005 (ip), vehicle: saline with Tween-80 100 % of control

c1ncn(Cn2cncn2)n1
inactive: [4] 105 % of control | [5] 107 % of control | [6] 101 % of control

O=S1(=O)CCN(c2ccccc2)CC1
inactive: [1] 96 % of control | [2] 98 % of control | [3] 95 % of control

COc1ccc(CCCNC(=O)Cc2ccccc2)cc1OC
inactive: [7] 92 % of control | [8] 92 % of control | [9] 91 % of control

CC1(C)O[C@H]2CC(=O)OC[C@@]23[C@H]1CC(=O)[C@@]1(C)C2=CCC(c4ccoc4)[C@]2(C)CC[C@@H]13 (stereo partly specified)
inactive: dose: 3.12 mg/kg/injection, schedule: Q01DX005 (ip), vehicle: distilled water + Tween-80 95 % of control | dose: 6.25 mg/kg/injection, schedule: Q01DX005 (ip), vehicle: distilled water + Tween-80 99 % of control | dose: 12.5 mg/kg/injection, schedule: Q01DX005 (ip), vehicle: distilled water + Tween-80 102 % of control | dose: 25.0 mg/kg/injection, schedule: Q01DX005 (ip), vehicle: distilled water + Tween-80 116 % of control | dose: 50.0 mg/kg/injection, schedule: Q01DX005 (ip), vehicle: distilled water + Tween-80 92 % of control

CCCCCC(C)(O)C1=NCCN1 (stereo unspecified)
inactive: dose: 12.5 mg/kg/injection, schedule: Q01DX005 (ip), vehicle: Klucel (hydroxypropylcellulose) (HPC) 97 % of control | dose: 25.0 mg/kg/injection, schedule: Q01DX005 (ip), vehicle: Klucel (hydroxypropylcellulose) (HPC) 95 % of control | dose: 50.0 mg/kg/injection, schedule: Q01DX005 (ip), vehicle: Klucel (hydroxypropylcellulose) (HPC) 100 % of control and 93 % of control

c1ccc2c(c1)OC1(CCSCC1)O2
inactive: dose: 100.0 mg/kg/injection, schedule: Q01DX001 (ip), vehicle: saline with Tween-80 95 % of control | dose: 200.0 mg/kg/injection, schedule: Q01DX001 (ip), vehicle: saline with Tween-80 95 % of control | dose: 400.0 mg/kg/injection, schedule: Q01DX001 (ip), vehicle: saline with Tween-80 100 % of control

C=C(C)C(=O)N(CC)CC
inactive: [2] 97 % of control | [3] 102 % of control

Cc1ccc([N+](=O)[O-])cc1NC(=O)Nc1onc(C)c1C
inactive: dose: 60.0 mg/kg/injection, schedule: Q01DX005 (ip), vehicle: saline with Tween-80 87 % of control | dose: 120.0 mg/kg/injection, schedule: Q01DX005 (ip), vehicle: saline with Tween-80 93 % of control | dose: 240.0 mg/kg/injection, schedule: Q01DX005 (ip), vehicle: saline with Tween-80 88 % of control

COc1ccc(NC(=O)c2ccc(C(=O)Nc3ccc(OC)cc3)cc2)cc1
inactive: dose: 50.0 mg/kg/injection, schedule: Q01DX001 (ip), vehicle: other 90 % of control | dose: 100.0 mg/kg/injection, schedule: Q01DX001 (ip), vehicle: other 95 % of control | dose: 200.0 mg/kg/injection, schedule: Q01DX001 (ip), vehicle: other 90 % of control | dose: 400.0 mg/kg/injection, schedule: Q01DX001 (ip), vehicle: other 95 % of control

COc1ccc(N=Cc2c(O)ccc3c2oc2cc(Cl)c(O)c(Cl)c23)cc1
inactive: [4] 96 % of control | [5] 93 % of control | [6] 91 % of control

Nc1ccccc1-n1nc2ccc3ccccc3c2n1
inactive: dose: 100.0 mg/kg/injection, schedule: Q04DX003 (ip), vehicle: saline with Tween-80 100 % of control | dose: 200.0 mg/kg/injection, schedule: Q04DX003 (ip), vehicle: saline with Tween-80 95 % of control | dose: 400.0 mg/kg/injection, schedule: Q04DX003 (ip), vehicle: saline with Tween-80 95 % of control

CCOC(=O)NC(=S)Nc1cccs1
inactive: [7] 91 % of control | [8] 100 % of control | [9] 101 % of control
